This passage reports Ki and solubility results from patent US9382295B2, “Cyclic depsipeptide compounds and their uses” (Cypralis Limited, priority 2012, dated 2016).

Converted amounts (≈) assume the structure as drawn. Where two headings read alike, the source gives them in different places. Numbered stars: 1 amine (or outer) side, 2 acyl side, 3 side chain; on linkers, the order of the positions; unused ones are H or OH. Square brackets hold non-standard residues; d marks the D form. Peptide text beside a SMILES is read from it. X28 = C[C@H](CCN1CCC(c2ccccc2)CC1)[C@@H](O)[C@H](C(=O)[*:2])N(C)[*:1]; X30 = C[C@H](CCN(C)Cc1nnn[nH]1)[C@@H](O)[C@H](C(=O)[*:2])N(C)[*:1]; X33 = C[C@H](CCN1CCC(F)(CO)CC1)[C@@H](O)[C@H](C(=O)[*:2])N(C)[*:1]; X12 = C[C@H](CCN(C)Cc1ccncc1)[C@@H](O)[C@H](C(=O)[*:2])N(C)[*:1]; X1 = Cc1cccc(CCC[C@@H](C)[C@@H](O)[C@H](C(=O)[*:2])N(C)[*:1])n1; X27 = C[C@H](CCN(C)c1ccccn1)[C@@H](O)[C@H](C(=O)[*:2])N(C)[*:1]; X6 = C[C@H](CCN1CCOC[C@H]1C)[C@@H](O)[C@H](C(=O)[*:2])N(C)[*:1]; X23 = COC1CN(CC[C@@H](C)[C@@H](O)[C@H](C(=O)[*:2])N(C)[*:1])C1; X31 = COCCN(C)CC[C@@H](C)[C@@H](O)[C@H](C(=O)[*:2])N(C)[*:1]; X16 = C[C@H](CCN1CCOCC1)[C@@H](O)[C@H](C(=O)[*:2])N(C)[*:1]; d(aThr) = C[C@@H](O)[C@@H](N)C(=O)O; NMeL = CN[C@@H](CC(C)C)C(=O)O; dNMeL = CN[C@H](CC(C)C)C(=O)O; dNMeV = CN[C@@H](C(=O)O)C(C)C; Hiv = CC(C)[C@H](O)C(=O)O; dAbu = CC[C@@H](N)C(=O)O; Sar = CNCC(=O)O

The target of one data set is T1, cyclophilin A (Cyp A) (Homo sapiens, UniProt P62937).
T1 construct: purchased Sigma C3805
T1 sequence (P62937 whole entry): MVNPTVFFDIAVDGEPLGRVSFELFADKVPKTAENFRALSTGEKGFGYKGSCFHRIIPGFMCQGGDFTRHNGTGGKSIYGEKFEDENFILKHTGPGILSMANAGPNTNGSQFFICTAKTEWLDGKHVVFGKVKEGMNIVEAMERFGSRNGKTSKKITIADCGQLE
The data set is described as follows: Protease-free PPIase assay, cyclophilin A. Type of data set: biochemical. The method, boiled down: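 Protease-free cis-trans isomerisation: 2 nM recombinant human cyclophilin A with 60 μM succinimide-peptide substrate in 35 mM HEPES pH 7.8 plus DTT, at 10.0 °C, max 0.5% DMSO. Absorbance at 330 nm was fitted to first-order kinetics, background subtracted, and catalytic rates versus inhibitor concentration gave Ki.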

The target of the next data set is cyclophilin D (Cyp D) (Homo sapiens, UniProt P30405). The data set can be described thus: Protease-free PPIase assay, cyclophilin D. Type of data set: biochemical. Put shortly:
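Cis-trans isomerization of a succinimide-peptide substrate (60 µM final) by 2 nM enzyme was followed at 330 nm in 35 mM HEPES pH 7.8 with 50 µM DTT, stirred at 10.0 °C, DMSO ≤0.5%. First-order rate constants minus background were fitted against inhibitor concentration to give Ki.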

Data set [1] is described as follows: Water solubility assay (pH 7.8 buffer). Type of data set: physicochemical. The method, boiled down: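 DMSO stocks were diluted into 35 mM HEPES pH 7.8 to final 0–100 μM with 1% DMSO, in triplicate. Plates were shaken 18 h at 25 °C, then precipitation was detected as increased absorbance at 650 nm. Values give the concentration (μM) at which the compound remains in solution.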

Where [2] appears, read: protease-free PPIase assay, class symbols, read-out: CypA Ki.
[3] abbreviates: protease-free PPIase assay, class symbols, read-out: CypD Ki.
Where [4] appears, read: 35 mM HEPES buffer, 35 mM HEPES pH 7.8, 1% DMSO, 25° C., 18 h, concentration at which compound remains in solution, read-out: Solubility.

Sequence of cyclophilin D (Cyp D) (P30405 30-207): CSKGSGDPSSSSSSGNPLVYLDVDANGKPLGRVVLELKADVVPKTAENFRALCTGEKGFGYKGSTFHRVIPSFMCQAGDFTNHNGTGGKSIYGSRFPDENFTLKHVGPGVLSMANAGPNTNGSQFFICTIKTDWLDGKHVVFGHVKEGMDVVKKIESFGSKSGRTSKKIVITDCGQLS

With `COCCN(C)CC[C@@H](C)[C@@H](O)[C@@H]1C(=O)N[C@H]([C@@H](C)O)C(=O)N(C)CC(=O)N(C)[C@@H](CC(C)C)C(=O)N[C@H](CC(C)C)C(=O)N(C)[C@H](CC(C)C)C(=O)N[C@H](C)C(=O)O[C@@H](C(C)C)C(=O)N(C)[C@H](CC(C)C)C(=O)N[C@H](CC(C)C)C(=O)N(C)[C@H](C(C)C)C(=O)N1C` [Example 10, cyclo-{(3R,4R,5S)-4-(hydroxy)-3-methyl-5-(methylamino)-1-N-[(2-methoxy-ethyl)-methyl-amino]-hexanoic acid-Thr-Sar-MeLeu-Leu-MeLeu-Ala-D-Hiv-MeLeu-Leu-MeVal}] (cyclo([Hiv][dNMeL][dL][dNMeV][X31][d(aThr)][Sar][NMeL][dL][dNMeL][dA])), the inhibition constant (Ki) (usually a measure of affinity in units of concentration, obtained from inhibition or displacement) was in the range of 25 to 100 nM at cyclophilin A (Cyp A) and 1 to 25 nM at cyclophilin D (Cyp D). Besides, the solubility – broadly, the dissolved amount per volume that the medium holds – at 18 h in data set [1] (pH 7.8) was greater than 100 µM.

With `CC(C)C[C@@H]1C(=O)N[C@H](CC(C)C)C(=O)N(C)[C@H](C(C)C)C(=O)N(C)[C@H]([C@H](O)[C@H](C)CCN(C)Cc2nnn[nH]2)C(=O)N[C@H]([C@@H](C)O)C(=O)N(C)CC(=O)N(C)[C@@H](CC(C)C)C(=O)N[C@H](CC(C)C)C(=O)N(C)[C@H](CC(C)C)C(=O)N[C@H](C)C(=O)O[C@@H](C(C)C)C(=O)N1C` [Example 6, cyclo-{(3R,4R,5S)-4-(hydroxy)-3-methyl-5-(methylamino)-1-N-[methyl-(1H-tetrazol-5-ylmethyl)-amino]-hexanoic acid-Thr-Sar-MeLeu-Leu-MeLeu-Ala-D-Hiv-MeLeu-Leu-MeVal}] (cyclo([Hiv][dNMeL][dL][dNMeV][X30][d(aThr)][Sar][NMeL][dL][dNMeL][dA])), the Ki on cyclophilin A (Cyp A) and at cyclophilin D (Cyp D) was 1 to 25 nM in each case. In data set [1] (pH 7.8), this compound showed a solubility at 18 h of 25 to 50 µM (≈ 33.3 to 66.6 µg/mL).

Take `CC(C)C[C@@H]1C(=O)N[C@H](CC(C)C)C(=O)N(C)[C@H](C(C)C)C(=O)N(C)[C@H]([C@H](O)[C@H](C)CCN(C)Cc2ccncc2)C(=O)N[C@H]([C@@H](C)O)C(=O)N(C)CC(=O)N(C)[C@@H](CC(C)C)C(=O)N[C@H](CC(C)C)C(=O)N(C)[C@H](CC(C)C)C(=O)N[C@H](C)C(=O)O[C@@H](C(C)C)C(=O)N1C` [Example 3, cyclo-[(3R,4R,5S)-4-(hydroxy)-3-methyl-5-(methylamino)-1-N-(methyl-pyridin-4-ylmethyl-amino)-hexanoic acid-Thr-Sar-MeLeu-Leu-MeLeu-Ala-D-Hiv-MeLeu-Leu-MeVal]] (cyclo([Hiv][dNMeL][dL][dNMeV][X12][d(aThr)][Sar][NMeL][dL][dNMeL][dA])): the inhibition constant Ki on cyclophilin A (Cyp A) (setting [2]) and on cyclophilin D (Cyp D) (setting [3]) was 1 to 25 nM each time. Also, in data set [1] (setting [4]), the solubility at 18 h is 50 to 75 µM (≈ 67.1 to 101 µg/mL).

Regarding `CC(C)C[C@@H]1C(=O)N[C@H](CC(C)C)C(=O)N(C)[C@H](C(C)C)C(=O)N(C)[C@H]([C@H](O)[C@H](C)CCN2CCC(F)(CO)CC2)C(=O)N[C@H]([C@@H](C)O)C(=O)N(C)CC(=O)N(C)[C@@H](CC(C)C)C(=O)N[C@H](CC(C)C)C(=O)N(C)[C@H](CC(C)C)C(=O)N[C@H](C)C(=O)O[C@@H](C(C)C)C(=O)N1C` [Example 25, cyclo-[(3R,4R,5S)-4-(hydroxy)-3-methyl-5-(methylamino)-1-N-((4-fluoro-piperidin-4-yl)-methanol)-hexanoic acid-Thr-Sar-MeLeu-Leu-MeLeu-Ala-D-Hiv-MeLeu-Leu-MeVal]] (cyclo([Hiv][dNMeL][dL][dNMeV][X33][d(aThr)][Sar][NMeL][dL][dNMeL][dA])), the Ki at cyclophilin A (Cyp A) (setting [2]) and at cyclophilin D (Cyp D) (setting [3]) was 100 to 300 nM throughout. For the same compound, the solubility at 18 h in data set [1] (setting [4]) is greater than 100 µM.

For the compound `CC[C@H]1NC(=O)[C@@H]([C@H](O)[C@H](C)CCN2CCOCC2)N(C)C(=O)[C@@H](C(C)C)N(C)C(=O)[C@@H](CC(C)C)NC(=O)[C@@H](CC(C)C)N(C)C(=O)[C@H](C(C)C)OC(=O)[C@@H](C)NC(=O)[C@@H](CC(C)C)N(C)C(=O)[C@@H](CC(C)C)NC(=O)[C@H](CC(C)C)N(C)C(=O)CN(C)C1=O` [Example 13, cyclo-[(3R,4R,5S)-4-(hydroxy)-3-methyl-5-(methylamino)-1-N-morpholino-hexanoic acid-Abu-Sar-MeLeu-Leu-MeLeu-Ala-D-Hiv-MeLeu-Leu-MeVal]] (cyclo([Hiv][dNMeL][dL][dNMeV][X16][dAbu][Sar][NMeL][dL][dNMeL][dA])), the Ki at cyclophilin A (Cyp A) and on cyclophilin D (Cyp D) was 1 to 25 nM each time. The solubility at 18 h in data set [1] (pH 7.8) is 25 to 50 µM (≈ 32.3 to 64.5 µg/mL).

Take `CC(C)C[C@@H]1C(=O)N[C@H](CC(C)C)C(=O)N(C)[C@H](C(C)C)C(=O)N(C)[C@H]([C@H](O)[C@H](C)CCN2CCOC[C@H]2C)C(=O)N[C@H]([C@@H](C)O)C(=O)N(C)CC(=O)N(C)[C@@H](CC(C)C)C(=O)N[C@H](CC(C)C)C(=O)N(C)[C@H](CC(C)C)C(=O)N[C@H](C)C(=O)O[C@@H](C(C)C)C(=O)N1C` [Example 29, cyclo-[(3R,4R,5S)-4-(hydroxy)-3-methyl-5-(methylamino)-1-N—((R)-3-Methyl-morpholine)-hexanoic acid-Thr-Sar-MeLeu-Leu-MeLeu-Ala-D-Hiv-MeLeu-Leu-MeVal]] (cyclo([Hiv][dNMeL][dL][dNMeV][X6][d(aThr)][Sar][NMeL][dL][dNMeL][dA])): the Ki on cyclophilin A (Cyp A) and at cyclophilin D (Cyp D) was 25 to 100 nM throughout. In data set [1] (pH 7.8), this compound gave a solubility at 18 h greater than 100 µM.

With `CC(C)C[C@@H]1C(=O)N[C@H](CC(C)C)C(=O)N(C)[C@H](C(C)C)C(=O)N(C)[C@H]([C@H](O)[C@H](C)CCN(C)c2ccccn2)C(=O)N[C@H]([C@@H](C)O)C(=O)N(C)CC(=O)N(C)[C@@H](CC(C)C)C(=O)N[C@H](CC(C)C)C(=O)N(C)[C@H](CC(C)C)C(=O)N[C@H](C)C(=O)O[C@@H](C(C)C)C(=O)N1C` [Example 28, cyclo-[(3R,4R,5S)-4-(hydroxy)-3-methyl-5-(methylamino)-1-N-(methyl-pyridin-2-yl-amine)-hexanoic acid-Thr-Sar-MeLeu-Leu-MeLeu-Ala-D-Hiv-MeLeu-Leu-MeVal]] (cyclo([Hiv][dNMeL][dL][dNMeV][X27][d(aThr)][Sar][NMeL][dL][dNMeL][dA])), the Ki at cyclophilin A (Cyp A) and at cyclophilin D (Cyp D) was 1 to 25 nM in each case. Moreover, the solubility at 18 h in data set [1] (pH 7.8) was in the range of 25 to 50 µM (≈ 33.2 to 66.4 µg/mL).

Take `CC(C)C[C@@H]1C(=O)N[C@H](CC(C)C)C(=O)N(C)[C@H](C(C)C)C(=O)N(C)[C@H]([C@H](O)[C@H](C)CCN2CCC(c3ccccc3)CC2)C(=O)N[C@H]([C@@H](C)O)C(=O)N(C)CC(=O)N(C)[C@@H](CC(C)C)C(=O)N[C@H](CC(C)C)C(=O)N(C)[C@H](CC(C)C)C(=O)N[C@H](C)C(=O)O[C@@H](C(C)C)C(=O)N1C` [Example 34, cyclo-[(3R,4R,5S)-4-(hydroxy)-3-methyl-5-(methylamino)-1-(4-phenyl-1-piperidyl)-hexanoic acid-Thr-Sar-MeLeu-Leu-MeLeu-Ala-D-Hiv-MeLeu-Leu-MeVal]] (cyclo([Hiv][dNMeL][dL][dNMeV][X28][d(aThr)][Sar][NMeL][dL][dNMeL][dA])): the Ki on cyclophilin A (Cyp A) (setting [2]) and at cyclophilin D (Cyp D) (setting [3]) was 1 to 25 nM in each case. In data set [1] (setting [4]), the solubility at 18 h was in the range of 10 to 25 µM (≈ 13.8 to 34.5 µg/mL).

`COC1CN(CC[C@@H](C)[C@@H](O)[C@@H]2C(=O)N[C@H]([C@@H](C)O)C(=O)N(C)CC(=O)N(C)[C@@H](CC(C)C)C(=O)N[C@H](CC(C)C)C(=O)N(C)[C@H](CC(C)C)C(=O)N[C@H](C)C(=O)O[C@@H](C(C)C)C(=O)N(C)[C@H](CC(C)C)C(=O)N[C@H](CC(C)C)C(=O)N(C)[C@H](C(C)C)C(=O)N2C)C1` [Example 11, cyclo-{(3R,4R,5S)-4-(hydroxy)-3-methyl-5-(methylamino)-1-N-(3-methoxy-azetidinyl)-hexanoic acid-Thr-Sar-MeLeu-Leu-MeLeu-Ala-D-Hiv-MeLeu-Leu-MeVal}] (cyclo([Hiv][dNMeL][dL][dNMeV][X23][d(aThr)][Sar][NMeL][dL][dNMeL][dA])): the inhibition constant Ki at cyclophilin A (Cyp A) and on cyclophilin D (Cyp D) was 1 to 25 nM throughout. The solubility at 18 h in data set [1] (pH 7.8) is greater than 100 µM.

On to `CC[C@H]1NC(=O)[C@@H]([C@H](O)[C@H](C)CCCc2cccc(C)n2)N(C)C(=O)[C@@H](C(C)C)N(C)C(=O)[C@@H](CC(C)C)NC(=O)[C@@H](CC(C)C)N(C)C(=O)[C@H](C(C)C)OC(=O)[C@@H](C)NC(=O)[C@@H](CC(C)C)N(C)C(=O)[C@@H](CC(C)C)NC(=O)[C@H](CC(C)C)N(C)C(=O)CN(C)C1=O` [Example 21, cyclo-[(3R,4R,5S)-4-(hydroxy)-3-methyl-5-(methylamino)-1-(6-methyl-pyridin-2-yl)-heptanoic acid-Abu-Sar-MeLeu-Leu-MeLeu-Ala-D-Hiv-MeLeu-Leu-MeVal]] (cyclo([Hiv][dNMeL][dL][dNMeV][X1][dAbu][Sar][NMeL][dL][dNMeL][dA])), for which the Ki at cyclophilin A (Cyp A) and at cyclophilin D (Cyp D) was 1 to 25 nM each time. In data set [1] (pH 7.8), this compound registered a solubility at 18 h of 10 to 25 µM (≈ 13.1 to 32.8 µg/mL).
